Data on one molecule can be found in article PMC10608985, “Retention Behavior of Anticancer Thiosemicarbazides in Biomimetic Chromatographic Systems and In Silico Calculations” (Molecules, 2023).

Data set [1] can be described thus: HPLC lipophilicity on cholesterol (Chol) stationary phase. The data set is classed as physicochemical. The settings on record: pH 7.4; for Log k Chol: Table S3. Put shortly:
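Cholesterol-bonded column run isocratically with MeOH/20 mM acetate buffer at pH 7.4, MeOH fraction 0.3–0.8 (v/v), 0.35 mL/min, room temperature, UV 280 nm. t0 from citric acid; log kw (intercept) and slope S from Soczewiński–Wachtmeister regression of log k against modifier content.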

Data set [2] deals with α1-acid glycoprotein (AGP). As to the kind of experiment: HPLC on immobilized AGP column, affinity and % plasma–protein binding. The data set is classed as in vitro ADME, human. The gist of the method:
(§1)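 Retention (log k) on immobilized-protein HPLC columns, 50 mM ammonium acetate pH 7.4 with propan-2-ol (85/15 for AGP), UV 280 nm, room temperature. log K read from drug calibration curves, then converted to %PPB.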

Data set [3] concerns the target T1, human serum albumin (HSA) (Homo sapiens, UniProt P02768).
T1 construct: purchased Chiralpac
As to the kind of experiment: HPLC on immobilized HSA column, affinity and % plasma–protein binding. The data set is classed as in vitro ADME. The gist of the method:
as §1

Details of data set [4]: method as in Kozyra et al. [31]. To be noted: MeOH/20 mM acetate buffer, pH 7.4, ref Kozyra et al. [31], cited from earlier work.
Data set [5] in a line: HPLC lipophilicity on IAM (immobilized artificial membrane, phosphatidylcholine) stationary phase. It is filed as physicochemical. The settings on record: pH 7.4; for Log k IAM: Table S2. Put shortly:
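Rexchrom IAM.PC.DD2 column with ACN/20 mM phosphate buffer pH 7.4 (0.15 M KCl), ACN fraction 0.05–0.4 v/v at 0.05 steps, 1 mL/min, UV 280 nm, room temperature; t0 from citric acid. log kw and slope S extrapolated via Soczewiński–Wachtmeister equation.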

T1 sequence (P02768 25-609): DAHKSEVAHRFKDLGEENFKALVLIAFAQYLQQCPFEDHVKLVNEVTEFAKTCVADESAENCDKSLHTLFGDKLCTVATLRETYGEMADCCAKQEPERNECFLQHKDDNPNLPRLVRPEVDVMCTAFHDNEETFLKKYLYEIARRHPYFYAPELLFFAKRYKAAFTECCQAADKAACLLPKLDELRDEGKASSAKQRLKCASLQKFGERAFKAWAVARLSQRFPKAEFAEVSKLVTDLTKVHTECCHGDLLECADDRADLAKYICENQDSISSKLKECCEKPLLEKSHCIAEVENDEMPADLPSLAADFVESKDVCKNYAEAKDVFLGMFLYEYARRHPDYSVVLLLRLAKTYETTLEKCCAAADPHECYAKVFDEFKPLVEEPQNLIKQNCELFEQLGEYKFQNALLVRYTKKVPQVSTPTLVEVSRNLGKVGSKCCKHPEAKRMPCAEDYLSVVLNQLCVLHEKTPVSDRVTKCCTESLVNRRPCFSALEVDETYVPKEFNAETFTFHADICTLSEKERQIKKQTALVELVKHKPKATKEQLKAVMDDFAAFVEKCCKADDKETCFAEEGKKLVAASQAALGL

With `O=C(COc1ccccc1)NNC(=S)Nc1cccc(I)c1` [Compound 8], the “Log k Chol” value in data set [1] (MeOH 0.40 v/v in mobile phase) is reported as 1.443; in data set [1] (MeOH 0.45 v/v in mobile phase) it was 1.026; in data set [1] (MeOH 0.50 v/v in mobile phase), 0.834; in data set [1] (MeOH 0.60 v/v in mobile phase) it was 0.522; in data set [1] (MeOH 0.70 v/v in mobile phase), -0.165; in data set [1] (MeOH 0.80 v/v in mobile phase) it was -0.984. The “log kw Chol” value in data set [1] (intercept, linear extrapolation to water, MeOH/20 mM acetate buffer) was 3.7019. The “-S Chol” value in data set [1] (slope of Soczewiński–Wachtmeister equation, MeOH/20 mM acetate buffer) is given as 5.6623. Moreover, the “log K AGP” value in data set [2] (binding equilibrium constant from calibration curve (Equation 9) of log k AGP) is reported as 0.8556. In data set [2] (human, pH 7.4, % plasma–protein binding converted from log K AGP (Equation 10), read-out: %PPB AGP (converted)), the fraction unbound is 0.114. For the same molecule, the “log k AGP” value in data set [2] (retention on AGP column, 50 mM ammonium acetate pH 7.4 / propan-2-ol 85/15 (v/v)) worked out at 0.7664. Besides, the “log K HSA” value in data set [3] (binding equilibrium constant from calibration curve (Equation 8) of log k HSA) is given as 2.1342. For the same molecule, in data set [3] (retention on HSA column, 50 mM ammonium acetate pH 7.4 / propan-2-ol 85/15 (v/v)), the “log k HSA” value was 1.7890. In data set [4] (intercept of Soczewiński–Wachtmeister equation (water as mobile phase)), the “log kw C-18” value is 3.0072. The “-S C-18” value in data set [4] (slope of Soczewiński–Wachtmeister equation) is 4.9651. In addition, the “Log k IAM” value in data set [5] (ACN 0.15 v/v in mobile phase) is on record as 1.304; in data set [5] (ACN 0.20 v/v in mobile phase), 0.952; in data set [5] (ACN 0.25 v/v in mobile phase), 0.573; in data set [5] (ACN 0.30 v/v in mobile phase) it was 0.088; in data set [5] (ACN 0.35 v/v in mobile phase), -0.074; in data set [5] (ACN 0.40 v/v in mobile phase) it was -0.404. The “log kw IAM” value in data set [5] (intercept, linear extrapolation to water, ACN/20 mM phosphate buffer) is reported as 2.3083. In addition, in data set [5] (slope of Soczewiński–Wachtmeister equation, ACN/20 mM phosphate buffer), the “-S IAM” value is given as 6.9157.
